Read-outs that look alike come from different tables or passages of the source.
Tests used:
[1] = AQW051 single-dose cohort pharmacokinetics (Feuerbach et al, phase I); type: in vivo, human
Description: (§1) We thus set out to use summary cohort-level pharmacokinetic (PK) statistics for AQW051 (Feuerbach et al, ibid) and our own unpublished results for AZD0328 (A Phase I, Single-Centre, Randomized, Double-Blind, Placebo-Controlled, Parallel Group Study to Assess the Safety, Tolerability and Pharmacokinetics of AZD0328 in Healthy Volunteers after Oral Single Ascending Doses, Study Code D0190C00005, Ed. 1, 8 Apr. 2008) to establish a safe an efficacious dose range and regime for AZD0328 in Parkinson's disease patients.
(§2) From the clinical study documentation, for each dose cohort t1/2, tmax, and Cmax could be established. For example, assuming dose-proportionality, half-life t1/2 was estimated for both drugs as the mean over of t1/2 over the different single-dose cohorts, as described in the study publications. We could then determine a working value for the elimination time constant ke in equation (2): […]
(§3) Dose and dosing regime selection for AZD0328 is targeted to achieve similar levels of α7 nAChR agonism to those reported to deliver clinical improvement in MCI with AQW051 (Trenkwalder et al., ibid).

[2] = single compartment oral dosing PK model for AQW051; design: species or system human; details: model parameter estimate
Description: (§4) In more detail, a single compartment oral dosing model with first order absorption as shown in equation (1) for a single dose at time t=0. This population-level model describes the concentration time dynamics of the study cohort given dose D of the drug. Here t is time, C(t) is drug concentration over time, Cmax is maximum achieved concentration at a particular dose, F is bioavailability, D is dose, Vd is volume of distribution, kα is the absorption time constant, and ke is the elimination time constant.
as §2
(§5) From equation (1), the time of maximum concentration tmax is then available from (3):
(§6) With dose-proportionality, tmax is independent of dose and is again obtained from the mean over the different single-dose cohorts. The absorption time constant kα is established by identifying the kα which results in a zero error e=0:
(§7) This is accomplished by graphing e(kα) over a dense grid in kα, identifying a region around the zero-crossing in which e(.) is monotonic in k0, and then using the interpolation function to estimate the kα with e(kα)=0. With the assumption of dose proportionality, we estimated the mean of Cmax/D over the single-dose cohorts and defined the constant K
(§8) Then from equation (1) and the definition of Cmax,
(§9) For multiple doses at times τi, we then assume linearity and hav
(§10) All equations were implemented directly in R version 3.2.1 (2015 Jun. 18, see https://cran.r-project.org/).
as §3

[3] = test system: Parkinson's disease patients; details: cited from earlier work
α7 nAChR [4] = molecular target: T1, α7 nAChR (Homo sapiens, UniProt P36544); details: from the literature (Feuerbach et al.); read-out: EC50 as α7 nAChR agonist; cited from earlier work
[5] = geometric mean, cited from earlier work
α7 nAChR [6] = molecular target: T1, α7 nAChR; experiment: α7 nAChR binding (inhibition of radioligand binding)
Description: (§11) AZD0328 is ca 20-fold selective to the α1β1γδ nAChR, and 1000-fold selective to other nicotinic receptors and a panel of other targets (as determined by inhibition of radioligand binding).

α7 nAChR [7] = molecular target: T1, α7 nAChR; experiment: activation of whole cell current at α7 nAChR; type: cell-based
α1β1γδ nAChR = α1β1γδ nAChR (Homo sapiens, UniProt P02708+P07510+Q07001); experiment: selectivity by inhibition of radioligand binding, α1β1γδ nAChR; details: relative to α7 nAChR
Description: as §11

[8] = test system: other nicotinic receptors and a panel of other targets; experiment: selectivity by inhibition of radioligand binding, other nicotinic receptors and panel; details: relative to α7 nAChR
Description: as §11

Rhesus monkeys = experiment: spatial working memory in Rhesus monkeys; type: in vivo, Rhesus monkey
Protocol: (§12) In Rhesus monkeys, spatial working memory was enhanced by doses of AZD0328 above 0.001 mg/kg (plasma compound levels of ca 0.2 times the whole cell current IC50).

schizophrenia patients = experiment: clinical evaluation of cognition in schizophrenia patients; type: in vivo, human; details: doses up to 0.675 mg
Description: In the case of schizophrenia, it has been widely postulated that direct-acting agonists of various cholinergic receptors including α7 nAChRs, could normalize GABAergic, glutamergic, or dopaminergic function in the dorsolateral prefrontal cortex (dIPFC), dysfunction of which has been consistently associated with cognitive deficits in this condition. […] To date, despite numerous trials, no α7 nAChR agonist has been approved for use in the treatment of schizophrenia.
as §12

[9] = Phase I oral single ascending dose study of AZD0328 in healthy volunteers (safety, tolerability, pharmacokinetics); type: in vivo, human
Description: as §1, §2
Capsules used in the study on which the modelling described above was performed were made by blending AZD0328 tartrate (monotartrate/monohydrate form) with mannitol, povidone and sodium starch glycolate (see Table 5). The blend was the subjected to wet granulation with water as the granulation fluid, then dried before blending with sodium stearyl fumarate. The resultant composition was filled into size 4 hard gelatin capsules (containing gelatin (Ph Eur), titanium dioxide (Ph Eur), and iron oxide black, red and yellow (E172). In embodiments, the compositions for use are capsules according to Table 5.

[10] = single compartment oral dosing PK model for AZD0328; design: species or system human; details: model parameter estimate
Description: as §4, §2, §5, §6, §7, §8, §9, §10

α7 nAChR [11] = molecular target: T1, α7 nAChR; experiment: Ki for efficacy used as threshold in PK figures; details: threshold indicated in FIGS. 3-5
rats = details: oral administration (WO2008/115139); cited from earlier work
[12] = healthy volunteers, oral single dose 0.025 mg, cohort geometric mean
[13] = healthy volunteers, oral single dose 0.075 mg, cohort geometric mean
[14] = healthy volunteers, oral single dose 0.23 mg, cohort geometric mean
[15] = healthy volunteers, oral single dose 0.68 mg, cohort geometric mean
[16] = healthy volunteers, oral single dose 1.35 mg, cohort geometric mean
[17] = healthy volunteers, oral single dose 2 mg, cohort geometric mean

T1 sequence (P36544 23-502): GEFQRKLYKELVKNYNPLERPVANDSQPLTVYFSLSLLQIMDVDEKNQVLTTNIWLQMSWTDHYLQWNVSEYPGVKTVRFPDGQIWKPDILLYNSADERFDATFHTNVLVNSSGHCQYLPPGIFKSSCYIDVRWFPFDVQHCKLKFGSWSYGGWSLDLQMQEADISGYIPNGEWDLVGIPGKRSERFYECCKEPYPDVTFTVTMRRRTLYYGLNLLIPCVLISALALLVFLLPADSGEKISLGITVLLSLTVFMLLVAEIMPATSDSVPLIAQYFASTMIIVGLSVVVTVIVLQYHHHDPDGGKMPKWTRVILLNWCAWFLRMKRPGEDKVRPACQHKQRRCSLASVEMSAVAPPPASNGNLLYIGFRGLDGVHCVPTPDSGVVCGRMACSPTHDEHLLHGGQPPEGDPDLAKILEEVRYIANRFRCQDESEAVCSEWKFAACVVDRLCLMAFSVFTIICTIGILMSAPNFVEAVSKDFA
Chain of α1β1γδ nAChR (P02708 21-457): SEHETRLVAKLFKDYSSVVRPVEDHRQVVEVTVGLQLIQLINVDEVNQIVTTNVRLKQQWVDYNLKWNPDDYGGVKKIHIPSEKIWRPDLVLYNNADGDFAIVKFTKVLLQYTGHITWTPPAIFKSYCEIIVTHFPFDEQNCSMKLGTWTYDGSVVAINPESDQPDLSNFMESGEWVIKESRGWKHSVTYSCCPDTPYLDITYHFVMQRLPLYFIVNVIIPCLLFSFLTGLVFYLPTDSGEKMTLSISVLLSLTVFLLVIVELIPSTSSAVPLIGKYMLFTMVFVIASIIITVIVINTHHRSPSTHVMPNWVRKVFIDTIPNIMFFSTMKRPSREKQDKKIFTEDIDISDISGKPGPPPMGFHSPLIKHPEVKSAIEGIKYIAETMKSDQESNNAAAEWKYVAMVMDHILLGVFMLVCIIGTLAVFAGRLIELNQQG
Chain of α1β1γδ nAChR (P11230 24-501 partner): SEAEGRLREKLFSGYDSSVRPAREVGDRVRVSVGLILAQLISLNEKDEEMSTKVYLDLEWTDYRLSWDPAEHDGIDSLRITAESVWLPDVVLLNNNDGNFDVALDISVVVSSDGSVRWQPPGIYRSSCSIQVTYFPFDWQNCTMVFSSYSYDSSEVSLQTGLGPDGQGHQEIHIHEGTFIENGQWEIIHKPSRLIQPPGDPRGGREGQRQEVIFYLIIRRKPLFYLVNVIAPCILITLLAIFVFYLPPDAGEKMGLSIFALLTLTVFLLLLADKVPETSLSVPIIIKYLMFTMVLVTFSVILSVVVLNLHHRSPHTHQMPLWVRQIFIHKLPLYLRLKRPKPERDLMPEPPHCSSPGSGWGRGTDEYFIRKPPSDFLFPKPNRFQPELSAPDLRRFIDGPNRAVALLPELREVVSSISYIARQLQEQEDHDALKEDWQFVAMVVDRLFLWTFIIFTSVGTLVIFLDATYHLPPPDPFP
Chain of α1β1γδ nAChR (P07510 23-517): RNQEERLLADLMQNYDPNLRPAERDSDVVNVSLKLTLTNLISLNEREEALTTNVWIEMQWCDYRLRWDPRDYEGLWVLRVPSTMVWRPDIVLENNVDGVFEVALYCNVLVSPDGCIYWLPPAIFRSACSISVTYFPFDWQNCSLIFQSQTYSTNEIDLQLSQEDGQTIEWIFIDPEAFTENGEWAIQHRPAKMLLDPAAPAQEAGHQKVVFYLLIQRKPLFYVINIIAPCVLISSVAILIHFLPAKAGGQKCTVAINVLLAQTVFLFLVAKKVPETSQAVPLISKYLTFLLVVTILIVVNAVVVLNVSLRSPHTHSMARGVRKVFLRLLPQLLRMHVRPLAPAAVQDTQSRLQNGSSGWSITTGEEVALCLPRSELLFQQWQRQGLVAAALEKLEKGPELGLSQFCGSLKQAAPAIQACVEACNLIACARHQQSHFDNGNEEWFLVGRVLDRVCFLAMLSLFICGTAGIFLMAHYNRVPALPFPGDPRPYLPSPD
Chain of α1β1γδ nAChR (Q07001 22-517): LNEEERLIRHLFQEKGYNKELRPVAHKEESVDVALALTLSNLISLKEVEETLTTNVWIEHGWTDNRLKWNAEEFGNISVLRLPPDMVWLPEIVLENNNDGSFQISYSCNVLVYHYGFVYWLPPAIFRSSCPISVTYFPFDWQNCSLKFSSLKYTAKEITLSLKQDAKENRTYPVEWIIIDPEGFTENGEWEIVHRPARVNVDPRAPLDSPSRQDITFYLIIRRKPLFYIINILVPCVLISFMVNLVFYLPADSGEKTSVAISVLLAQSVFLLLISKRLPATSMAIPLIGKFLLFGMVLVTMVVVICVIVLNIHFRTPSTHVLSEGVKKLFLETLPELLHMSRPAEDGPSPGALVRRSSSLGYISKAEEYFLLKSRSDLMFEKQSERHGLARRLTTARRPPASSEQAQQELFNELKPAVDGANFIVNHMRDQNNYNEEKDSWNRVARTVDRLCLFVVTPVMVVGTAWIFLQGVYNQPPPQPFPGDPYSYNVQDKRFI

In the case of `Cc1ccc(-c2ccc(OC3CN4CCC3CC4)cn2)cc1` (stereo not drawn) [AQW051], the Cmax/Dose ([1]; Cohort 1, single dose 0.5 mg) is reported as 0.53 ng/mL/mg, the Cmax/Dose ([1]; Cohort 2, single dose 2.5 mg) is reported as 0.48 ng/mL/mg and the Cmax/Dose ([1]; Cohort 3, single dose 7.5 mg) is reported as 0.58 ng/mL/mg. For the same compound, the Cmax/Dose ([1]; Cohort 4, single dose 25 mg) was 0.82 ng/mL/mg, the Cmax/Dose ([1]; Cohort 5, single dose 75 mg) was 0.63 ng/mL/mg and the Cmax/Dose ([1]; Cohort 6, single dose 200 mg) was 0.81 ng/mL/mg. It also gave a Cmax/Dose ([1]; mean over cohorts) of 0.64 ng/mL/mg, a t1/2 ([1]; mean over cohorts) of 20.9 h and a tmax ([1]; mean over cohorts) of 6.80 h. For the same compound, the “K (equation 7 and 8)” value [2] was 0.88 ng/mL/mg, the “ka (absorption time constant)” value [2] was 0.40 h⁻¹ and the “ke (elimination time constant)” value [2] was 0.033 h⁻¹. The “effect size, improvement in MCI” value ([3]; PD patients, 10 mg once daily, P=0.073) was 0.4, the “increase in cognitive function” value ([3]; PD patients, 10 mg) was “not significantly different from the control group” and the “effect size, improvement in MCI” value ([3]; PD patients, 50 mg once daily, P=0.024) was 0.5. For the same compound, the “improvement in cognitive function” value ([3]; PD patients, 50 mg) was “significantly different from the placebo cohort”, the cognitive function ([3]; Trenkwalder et al 2016 study) was “improvements in cognitive function can be realised” and the EC50 (α7 nAChR [4]) was 40 nM. For the same compound, the Cmax ([5]; Cohort 1, single dose 0.5 mg) was 0.266 ng/mL, the tmax ([5]; Cohort 1, single dose 0.5 mg) was 8 h and the Cmax ([5]; Cohort 2, single dose 2.5 mg) was 1.20 ng/mL. The tmax ([5]; Cohort 2, single dose 2.5 mg) was 8 h, the Cmax ([5]; Cohort 3, single dose 7.5 mg) was 4.34 ng/mL and the t1/2 ([5]; Cohort 3, single dose 7.5 mg) was 22.0 h. The tmax ([5]; Cohort 3, single dose 7.5 mg) was 7.98 h, the Cmax ([5]; Cohort 4, single dose 25 mg) was 20.6 ng/mL and the t1/2 ([5]; Cohort 4, single dose 25 mg) was 22.7 h. For the same compound, the tmax ([5]; Cohort 4, single dose 25 mg) was 8 h, the Cmax ([5]; Cohort 5, single dose 75 mg) was 47.0 ng/mL and the t1/2 ([5]; Cohort 5, single dose 75 mg) was 18.8 h. The tmax ([5]; Cohort 5, single dose 75 mg) was 4.04 h, the Cmax ([5]; Cohort 6, single dose 200 mg) was 162 ng/mL and the t1/2 ([5]; Cohort 6, single dose 200 mg) was 20.0 h. For the same compound, the tmax ([5]; Cohort 6, single dose 200 mg) was 4.77 h.
In the case of `c1cnc2c(c1)C[C@@]1(CN3CCC1CC3)O2` [AZD0328, (3R)-spiro[1-azabicyclo[2.2.2]octane-3,2′(3′H)-furo[2,3-b]pyridine], the IC50 (α7 nAChR [6]) is reported as 3 nM, the EC50 (α7 nAChR [7]; read-out: activation of whole cell current IC50) is reported as 2900 nM and the Emax (α7 nAChR [7]; read-out: intrinsic activity compared with acetylcholine) is reported as 101%. The “selectivity to the α1β1γδ nAChR” value (α1β1γδ nAChR) was roughly 20 fold, the “selectivity to other nicotinic receptors and a panel of other targets” value [8] was 1000 fold and the “doses enhancing spatial working memory” value (Rhesus monkeys) was “above 0.001 mg/kg”. The improvement in cognition (schizophrenia patients) was “did not show a statistically significant improvement in cognition”, the adverse effects ([9]; clinical studies, single dose 0.68 mg) was “adverse effects, especially, nausea become apparent” and the “prevalence of adverse events” value ([9]; clinical studies, single doses from 0.25 mg to 0.50 mg) was “markedly reduced”. The Cmax [9, 12] was 0.63 nM, the t1/2 [9, 12] was 6.25 h and the Cmax [9, 13] was 2.08 nM. The t1/2 [9, 13] was 5.94 h, the Cmax [9, 14] was 6.37 nM and the t1/2 [9, 14] was 6.69 h. It also gave a Cmax [9, 15] of 15 nM, a t1/2 [9, 15] of 5.98 h and a Cmax [9, 16] of 31 nM. For the same compound, the t1/2 [9, 16] was 6.87 h, the Cmax [9, 17] was 43.9 nM and the tmax [9, 17] was 2.45 h. The half-life ([9]; human, plasma, oral, mean over cohorts) was 1.81 h, the tmax ([9]; human, plasma, oral, mean over cohorts, read-out: tmax) was 6.21 h and the tmax ([9]; human, plasma, healthy volunteers, oral single dose 0.025 mg, cohort geometric mean, read-out: tmax) was 1.44 h. The tmax ([9]; human, plasma, healthy volunteers, oral single dose 0.075 mg, cohort geometric mean, read-out: tmax) was 1.59 h, the tmax ([9]; human, plasma, healthy volunteers, oral single dose 0.23 mg, cohort geometric mean, read-out: tmax) was 1.38 h and the tmax ([9]; human, plasma, healthy volunteers, oral single dose 0.68 mg, cohort geometric mean, read-out: tmax) was 2.08 h. For the same compound, the tmax ([9]; human, plasma, healthy volunteers, oral single dose 1.35 mg, cohort geometric mean, read-out: tmax) was 2.95 h, the Cmax/Dose ([9]; mean over cohorts) was 24.6 nM/mg and the Cmax/Dose ([9]; oral single dose 0.025 mg) was 25.2 nM/mg. The Cmax/Dose ([9]; oral single dose 0.075 mg) was 27.7 nM/mg, the Cmax/Dose ([9]; oral single dose 0.23 mg) was 27.7 nM/mg and the Cmax/Dose ([9]; oral single dose 0.68 mg) was 22.1 nM/mg. The Cmax/Dose ([9]; oral single dose 1.35 mg) was 22.9 nM/mg, the Cmax/Dose ([9]; oral single dose 2 mg) was 21.94 nM/mg and the “K (equation 7 and 8)” value [10] was 32.4 nm/mg. For the same compound, the “ka (absorption time constant)” value [10] was 1.57 h⁻¹, the “ke (elimination time constant)” value [10] was 0.11 h⁻¹ and the Ki (α7 nAChR [11]) was 5 nM. The long-term potentiation (rats) was “significantly improve” and the operant conditioning (rats) was “significantly improve”.
